Results as given in PMC11240139, “Exploring the antitumor potential of novel quinoline derivatives via tubulin polymerization inhibition in breast cancer; design, synthesis and molecular docking” (RSC Advances, 2024).

Legend:
Experiment in all cases: NCI-60 SRB cytotoxicity screen
Type in all cases: cell-based
HCT-15 (colon cancer) = system: HCT-15 (colon cancer)
T-47D (breast cancer) = system: T-47D (breast cancer)
[1] = system: MDA-MB-231/ATCC (breast cancer)
UACC-257 (melanoma) = system: UACC-257 (melanoma)
IGROV1 (ovarian cancer) = system: IGROV1 (ovarian cancer)
[2] = system: NCI-H23 (non-small cell lung cancer)
A498 (renal cancer) = system: A498 (renal cancer)
PC-3 (prostate cancer) = system: PC-3 (prostate cancer)
HL-60(TB) (leukemia) = system: HL-60(TB) (leukemia)
MCF7 (breast cancer) = system: MCF7 (breast cancer)
[3] = system: HOP-62 (non-small cell lung cancer)
CCRF-CEM (leukemia) = system: CCRF-CEM (leukemia)
HT29 (colon cancer) = system: HT29 (colon cancer)
SNB-75 (CNS cancer) = system: SNB-75 (CNS cancer)
SK-OV-3 (ovarian cancer) = system: SK-OV-3 (ovarian cancer)
[4] = system: NCI-H522 (non-small cell lung cancer)
MALME-3M (melanoma) = system: MALME-3M (melanoma)
786-0 (renal cancer) = system: 786-0 (renal cancer)
[5] = Homo sapiens, HCT-15, five-dose assay
[6] = Homo sapiens, UACC-257, five-dose assay
[7] = Homo sapiens, NCI-H23, five-dose assay
[8] = Homo sapiens, A498, five-dose assay
[9] = Homo sapiens, single dose 10 μM, read-out: growth inhibition (GI%)
[10] = Homo sapiens, HOP-62, five-dose assay
[11] = Homo sapiens, NCI-H522, five-dose assay

CCc1cccc2cc(-c3cc(-c4cc(OC)c(OC)c(OC)c4)[nH]c(=O)c3C#N)c(Cl)nc12 [Compound 4c, 4-(2-Chloro-8-ethylquinolin-3-yl)-2-oxo-6-(3,4,5-trimethoxyphenyl)-1,2-dihydropyridine-3-carbonitrile]
TGI (HCT-15 (colon cancer); HCT-15, five-dose assay): >100 µM | GI50 (HCT-15 (colon cancer); [5]): 27.6 µM | LC50 (concentration causing 50% net cell kill) (HCT-15 (colon cancer); [5]): > 100 µM | inhibition at 10 µM (HCT-15 (colon cancer); Homo sapiens, HCT-15, single dose 10 μM, read-out: growth inhibition (GI%)): 35.8% | GI50 (T-47D (breast cancer); Homo sapiens, T47D, five-dose assay): 12.2 µM | CC50 (T-47D (breast cancer); Homo sapiens, T47D, five-dose assay, read-out: LC50 (the source's name)): > 100 µM | inhibition at 10 µM (T-47D (breast cancer); Homo sapiens, T47D, single dose 10 μM, read-out: growth inhibition (GI%)): 91.6% | TGI (T-47D (breast cancer); five-dose assay): 64.10 µM | GI50 ([1]; Homo sapiens, MDA-MB-231): 14.5 µM | inhibition at 10 µM ([1]; Homo sapiens, MDA-MB-231, read-out: growth inhibition (GI%)): > 100% | CC50 ([1]; Homo sapiens, MDA-MB-231/ATCC, five-dose assay, read-out: LC50 (the source's name)): 69.8 µM | TGI ([1]; MDA-MB-231/ATCC, five-dose assay): 31.80 µM | growth inhibition (GI%) ([1]; MDA-MB-231/ATCC, single dose 10 μM): lethal effect | GI50 (UACC-257 (melanoma); [6]): 42.6 µM | LC50 (UACC-257 (melanoma); [6]): > 100 µM | inhibition at 10 µM (UACC-257 (melanoma); Homo sapiens, UACC-257, single dose 10 μM, read-out: growth inhibition (GI%)): 26.5% | TGI (UACC-257 (melanoma); UACC-257, five-dose assay): >100 µM | GI50 (IGROV1 (ovarian cancer); Homo sapiens, IGROV-1, IGROV1, five-dose assay): 12.2 µM | CC50 (IGROV1 (ovarian cancer); Homo sapiens, IGROV-1, IGROV1, five-dose assay, read-out: LC50 (the source's name)): > 100 µM | inhibition at 10 µM (IGROV1 (ovarian cancer); Homo sapiens, IGROV-1, IGROV1, single dose 10 μM, read-out: growth inhibition (GI%)): 66.3% | TGI (IGROV1 (ovarian cancer); IGROV1, five-dose assay): 46.30 µM | GI50 [2, 7]: 3.2 µM | LC50 (concentration killing 50% of cells) [2, 7]: > 100 µM | inhibition at 10 µM ([2]; Homo sapiens, NCI-H23, single dose 10 μM, read-out: growth inhibition (GI%)): 68.6% | TGI ([2]; NCI-H23, five-dose assay): >100 µM | TGI (A498 (renal cancer); A498, five-dose assay): 45.20 µM | growth inhibition (GI%) (A498 (renal cancer); A498, single dose 10 μM): lethal effect | GI50 (A498 (renal cancer); [8]): 15.8 µM | LC50 (concentration killing 50% of cells) (A498 (renal cancer); [8]): > 100 µM | inhibition at 10 µM (A498 (renal cancer); Homo sapiens, A498, single dose 10 μM, read-out: growth inhibition (GI%)): > 100% | GI50 (PC-3 (prostate cancer); PC-3, five-dose assay): 40.3 µM | TGI (PC-3 (prostate cancer); PC-3, five-dose assay): >100 µM | CC50 (PC-3 (prostate cancer); PC-3, five-dose assay, read-out: LC50 (the source's name)): > 100 µM | inhibition at 10 µM (PC-3 (prostate cancer); PC-3, single dose 10 μM, read-out: growth inhibition (GI%)): 67.6% | GI50 (HL-60(TB) (leukemia); Homo sapiens, five-dose assay): 13.4 µM | LC50 (HL-60(TB) (leukemia); Homo sapiens, five-dose assay): > 100 µM | inhibition at 10 µM (HL-60(TB) (leukemia); [9]): 71.3% | TGI (HL-60(TB) (leukemia); five-dose assay): >100 µM | GI50 (MCF7 (breast cancer); Homo sapiens, MCF7, five-dose assay): 24 µM | CC50 (MCF7 (breast cancer); Homo sapiens, MCF7, five-dose assay, read-out: LC50 (the source's name)): > 100 µM | inhibition at 10 µM (MCF7 (breast cancer); Homo sapiens, MCF7, single dose 10 μM, read-out: growth inhibition (GI%)): 54.8% | TGI (MCF7 (breast cancer); MCF7, five-dose assay): >100 µM | TGI ([3]; HOP-62, five-dose assay): 78.90 µM | GI50 [3, 10]: 20.7 µM | LC50 [3, 10]: > 100 µM | inhibition at 10 µM ([3]; Homo sapiens, HOP-62, single dose 10 μM, read-out: growth inhibition (GI%)): 87.9% | GI50 (CCRF-CEM (leukemia); Homo sapiens, five-dose assay): 12 µM | LC50 (CCRF-CEM (leukemia); Homo sapiens, five-dose assay): > 100 µM | inhibition at 10 µM (CCRF-CEM (leukemia); [9]): 80.4% | TGI (CCRF-CEM (leukemia); five-dose assay): >100 µM | TGI (HT29 (colon cancer); HT29, five-dose assay): >100 µM | GI50 (HT29 (colon cancer); Homo sapiens, HT-29, HT29, five-dose assay): 32.1 µM | CC50 (HT29 (colon cancer); Homo sapiens, HT-29, HT29, five-dose assay, read-out: LC50 (the source's name)): > 100 µM | inhibition at 10 µM (HT29 (colon cancer); Homo sapiens, HT-29, HT29, single dose 10 μM, read-out: growth inhibition (GI%)): < 10% | inhibition at 10 µM (SNB-75 (CNS cancer); Homo sapiens, SNB-75, SNB-75, single dose 10 μM, read-out: growth inhibition (GI%)): > 100% | GI50 (SNB-75 (CNS cancer); Homo sapiens, SNB-75, five-dose assay): 2.38 µM | CC50 (SNB-75 (CNS cancer); Homo sapiens, SNB-75, five-dose assay, read-out: LC50 (the source's name)): 52.6 µM | TGI (SNB-75 (CNS cancer); SNB-75, five-dose assay): 16.90 µM | GI50 (SK-OV-3 (ovarian cancer); Homo sapiens, SK-OV-3, five-dose assay): 26 µM | CC50 (SK-OV-3 (ovarian cancer); Homo sapiens, SK-OV-3, five-dose assay, read-out: LC50 (the source's name)): > 100 µM | inhibition at 10 µM (SK-OV-3 (ovarian cancer); Homo sapiens, SK-OV-3, single dose 10 μM, read-out: growth inhibition (GI%)): 61.4% | TGI (SK-OV-3 (ovarian cancer); SK-OV-3, five-dose assay): >100 µM | GI50 [4, 11]: 19.1 µM | LC50 (concentration causing 50% net cell kill) [4, 11]: > 100 µM | inhibition at 10 µM ([4]; Homo sapiens, NCI-H522, single dose 10 μM, read-out: growth inhibition (GI%)): > 100% | TGI ([4]; NCI-H522, five-dose assay): >100 µM | growth inhibition (GI%) ([4]; NCI-H522, single dose 10 μM): lethal effect | GI50 (MALME-3M (melanoma); Homo sapiens, five-dose assay): 10.1 µM | CC50 (MALME-3M (melanoma); Homo sapiens, five-dose assay, read-out: LC50 (the source's name)): > 100 µM | inhibition at 10 µM (MALME-3M (melanoma); [9]): 89.4% | TGI (MALME-3M (melanoma); five-dose assay): 40.00 µM | TGI (786-0 (renal cancer); 786-0, five-dose assay): 26.70 µM | growth inhibition (GI%) (786-0 (renal cancer); 786-0, single dose 10 μM): lethal effect | GI50 (786-0 (renal cancer); Homo sapiens, 786-0, five-dose assay): 11.7 µM | CC50 (786-0 (renal cancer); Homo sapiens, 786-0, five-dose assay, read-out: LC50 (the source's name)): 61.1 µM | inhibition at 10 µM (786-0 (renal cancer); Homo sapiens, 786-0, single dose 10 μM, read-out: growth inhibition (GI%)): > 100%
